Laboratory results taken from patent publication US10793561B2, “1,8-naphthyridinone compounds and uses thereof” (NUVATION BIO INC., priority 2017, dated 2020).

What was measured:
[1] = target: T1, adenosine A2A receptor (Homo sapiens (Human), UniProt P29274); assay: Radioligand binding competition assay, adenosine A2A receptor; conditions: for A2A radioligand binding competition assay % residual binding @ 100 nM: 100 nM compound; for A2A radioligand binding competition assay % residual binding @ 300 nM: 300 nM compound; for A2A radioligand binding competition assay % residual binding @ 3000 nM: 3000 nM compound
T1 sequence (P29274 whole entry): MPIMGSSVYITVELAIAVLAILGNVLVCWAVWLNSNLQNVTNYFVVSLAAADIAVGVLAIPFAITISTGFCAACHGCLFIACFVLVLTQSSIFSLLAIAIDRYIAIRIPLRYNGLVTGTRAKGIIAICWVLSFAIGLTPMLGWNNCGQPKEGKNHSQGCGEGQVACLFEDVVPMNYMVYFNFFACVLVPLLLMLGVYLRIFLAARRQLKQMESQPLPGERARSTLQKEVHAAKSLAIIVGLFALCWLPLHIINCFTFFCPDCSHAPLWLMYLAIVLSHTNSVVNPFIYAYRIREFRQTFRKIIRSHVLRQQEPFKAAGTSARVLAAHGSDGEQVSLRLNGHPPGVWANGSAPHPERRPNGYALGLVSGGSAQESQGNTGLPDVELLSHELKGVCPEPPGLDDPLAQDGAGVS
Protocol: (§1) Binding of selected compounds to the adenosine A1, A2A, A2B, and A3 receptors was tested using a binding competition assay.
(§2) The general protocol for the radioligand binding competition assay was as follows. Competition binding was performed in duplicate in the wells of a 96 well plate (Master Block, Greiner, 786201) containing binding buffer (optimized for each receptor), membrane extracts (amount of protein/well optimized for each receptor), radiotracer (final concentration optimized for each receptor), and test compound. Nonspecific binding was determined by co-incubation with 200-fold excess of cold competitor. The samples were incubated in a final volume of 0.1 mL at 25° C. for 60 minutes and then filtered over filter plates. Filters were washed six times with 0.5 mL of ice-cold washing buffer (optimized for each receptor) and 50 μL of Microscint 20 (Packard) were added on each filter. The filter plates were sealed, incubated 15 min on an orbital shaker and scintillation counted with a TopCount for 30 sec/filter.
For the adenosine A2A receptor radioligand binding assay, the following modifications were made to the general protocol. GF/C filters (Perkin Elmer, 6005174), presoaked in 0.01% Brij for 2 h at room temperature were used. Filters were washed six times with 0.5 mL of ice-cold washing buffer (50 mM Tris pH 7.4) and 50 μL of Microscint 20 (Packard) was added in each well. The plates were then incubated for 15 min on an orbital shaker and then counted with a TopCount™ for 1 min/well.
Another radioligand binding assay was used to evaluate the binding affinity for the adenosine A2A receptor assay was performed in duplicate in the wells of a 384 plate. Assay buffer contained DPBS 500 mM, MgCl2 0.1 mM, and 1% DMSO. Membrane-bead suspension was prepared by mixing 25.98 μL of human adenosine A2A membrane preparation (Perkin Elmer, RBHA2AM400UA) at 33.4 pg/mL, 28 μL of ADA at 20 pg/mL, and 932 μL of SPA beads at 3.33 mg/mL) and incubated the mixture for 20 min at room temperature. Mixed 20 μL of radiotracer (^3H-SCH 58261) at 15 nM to each well containing test articles at various concentrations and centrifuge the plate at 1000 rpm for 1 minute. Added 30 μL of the membrane-bead suspension to each well. Sealed the plates and incubated for 1 hr at room temperature with vigorous mixing on a plate mixer. Plates were read on Microbeta^2 (Perkin Elmer, 2450-0010).
(§3) CHO-K1-A3 cell membranes, 1.5 μg/well; a binding buffer comprising HEPES 25 mM pH 7.4, MgCl2 5 mM, CaCl2 1 mM, 0.5% BSA; a wash buffer comprising HEPES 25 mM pH 7.4, MgCl2 5 mM, CaCl2 1 mM; a Unifilter GF/C—treated for 2 h with 0.5% BS; and 0.4 nM of ^125I-AB-MECA as the tracer. The results of the binding assay are shown in Table B1-1 and are shown as percent residual binding at a given concentration. Percent of residual binding means binding of a compound in the presence of competitor normalized to the amount of binding in the absence of competitor. […] For example, compound 1 strongly bound to A2A (30% residual binding at a concentration of 100 nM), A1 (−3% residual binding at 300 nM) and A2B, (−9% residual binding at 300 nM) but weakly bound to A3 (96% residual binding at 300 nM).

[2] = target: adenosine A1 receptor (Homo sapiens (Human), UniProt P30542); assay: Radioligand binding competition assay, adenosine A1 receptor (CHO-K1-A1 cell membranes); conditions: 300 nM compound
Sequence of adenosine A1 receptor (P30542 whole entry): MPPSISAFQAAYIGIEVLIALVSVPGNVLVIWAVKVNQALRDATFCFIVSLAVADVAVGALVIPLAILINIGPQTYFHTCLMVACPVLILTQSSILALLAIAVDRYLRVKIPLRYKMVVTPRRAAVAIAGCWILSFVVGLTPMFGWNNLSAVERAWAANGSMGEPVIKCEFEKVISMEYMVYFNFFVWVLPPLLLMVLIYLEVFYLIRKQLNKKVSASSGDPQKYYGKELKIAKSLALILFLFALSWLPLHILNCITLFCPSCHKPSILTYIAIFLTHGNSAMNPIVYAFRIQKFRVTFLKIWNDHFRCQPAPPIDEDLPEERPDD
Protocol: as §1, §2
For the adenosine A1 radioligand binding competition assay, a similar procedure was used except that the following reagents were used: CHO-K1-A1 cell membranes; binding buffer comprising HEPES 25 mM pH 7.4, MgCl2 5 mM, CaCl2 1 mM, NaCl 100 mM, saponin 10 µg/mL; wash buffer comprising HEPES 25 mM pH 7.4, MgCl2 5 mM, CaCl2 1 mM, NaCl 100 mM; Unifilter GF/B—treated for 2 h with 0.5% PEI was the filter; and 1.6 nM of ^3H-DPCPX was the tracer.
as §3

[3] = target: adenosine A2B receptor (Homo sapiens (Human), UniProt P29275); assay: Radioligand binding competition assay, adenosine A2B receptor (HEK-293-A2b cell membranes); conditions: 300 nM compound
Sequence of adenosine A2B receptor (P29275 whole entry): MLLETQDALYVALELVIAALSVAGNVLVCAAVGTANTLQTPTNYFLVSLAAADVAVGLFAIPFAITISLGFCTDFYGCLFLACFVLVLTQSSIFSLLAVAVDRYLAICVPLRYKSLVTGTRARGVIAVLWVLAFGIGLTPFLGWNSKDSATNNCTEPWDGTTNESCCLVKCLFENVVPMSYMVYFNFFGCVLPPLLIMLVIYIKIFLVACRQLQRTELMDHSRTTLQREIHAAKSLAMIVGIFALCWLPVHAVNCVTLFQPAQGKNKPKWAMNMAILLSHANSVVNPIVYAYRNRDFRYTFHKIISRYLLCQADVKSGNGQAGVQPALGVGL
Protocol: as §1, §2
Similarly, the following reagents were used for the adenosine A2B radioligand binding competition assay: HEK-293-A2b cell membranes, 20 μg/well, preincubated 30 min at RT with […] Adenosine Deaminase; a binding buffer comprising HEPES 10 mM pH7.4, EDTA 1 mM, 0.5% BSA; a wash buffer comprising HEPES 10 mM pH7.4, EDTA 1 mM; a Unifilter GF/C—treated for 2 h with 0.5% PEI; and 10 nM ^3H-DPCPX as the tracer.
as §3

[4] = target: adenosine A3 receptor (Homo sapiens (Human), UniProt P0DMS8); assay: Radioligand binding competition assay, adenosine A3 receptor (CHO-K1-A3 cell membranes); conditions: 300 nM compound
Sequence of adenosine A3 receptor (P0DMS8 whole entry): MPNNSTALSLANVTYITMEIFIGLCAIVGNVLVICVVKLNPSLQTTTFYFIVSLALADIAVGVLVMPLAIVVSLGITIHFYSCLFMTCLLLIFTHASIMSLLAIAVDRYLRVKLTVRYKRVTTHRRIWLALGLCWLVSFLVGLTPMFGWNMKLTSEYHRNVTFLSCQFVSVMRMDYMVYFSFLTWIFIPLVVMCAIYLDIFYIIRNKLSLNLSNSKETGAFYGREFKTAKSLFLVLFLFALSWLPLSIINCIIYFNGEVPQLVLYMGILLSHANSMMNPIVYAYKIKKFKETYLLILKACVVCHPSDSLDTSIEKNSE
Protocol: as §1, §2
For the adenosine A3 radioligand binding competition assay, the following reagents were used:
as §3

[5] = target: T1, adenosine A2A receptor; assay: cAMP assay in HEK-293 cells expressing human recombinant adenosine A2A receptor; type: cell-based; conditions: for IC50: first cAMP table; for inhibition at 0.1 µM: HEK293, 100 nM compound, read-out: A2a cAMP % inh @ 100 nM
Protocol: The functional activity of compounds was tested using one of the two assays to detect the present of cAMP. Activation of G-protein coupled receptors (such as A2A) results in activation of adenylcyclase which converts ATP into cAMP which is used as a downstream signaling molecule. Therefore, molecules which act as GPCR (or specifically A2A receptor) antagonists cause a decrease in intracellular cAMP concentration.
Both assays used HEK-293 cells expressing human recombinant adenosine A2A receptor were grown prior to the test in media without antibiotic. Assay 1: The cells were detached by gentle flushing with PBS-EDTA (5 mM EDTA), recovered by centrifugation and suspended in assay buffer (KRH: 5 mM KCl, 1.25 mM MgSO4, 124 mM NaCl, 25 mM HEPES, 13.3 mM Glucose, 1.25 mM KH2PO4, 1.45 mM CaCl2, 0.5 g/L BSA, supplemented with Rolipram).
12 μL of cells were mixed with 6 μL of the test compound at increasing concentrations and then incubated for 10 min. Thereafter 6 μL of the reference agonist was added at a final concentration corresponding to the historical EC80. The plates were then incubated for 30 min at room temperature. After addition of the lysis buffer and 1 hour incubation, cAMP concentrations were estimated, according to the manufacturer specification, with the HTRF® kit.
Assay 2: 100 nL of test articles at 100× of final concentration were transferred to assay plate by Echo. Cells were washed twice with 5 mL of PBS […]. After aspirating the PBS and adding 1.5 mL versine, cells were incubated at 37° C. for 2-5 min. After centrifugation, 4 mL of medium was added and adjusted cell density to 5,000 cells/well with stimulation buffer. 10 μL of cells were aliquoted to the assay plate, centrifuged at 1000 rpm for 1 minute, and incubated for 60 minutes at room temperature. 5 μL 4× Eu-cAMP tracer solution and 5 μL 4× Ulight™-anti-cAMP solution were added to assay plate, followed by centrifugation and 60-minute incubation at room temperature. Plates were read on EnVision.

Compound | A2A radioligand binding competition assay % residual binding @ 100 nM [1] [%] | A2A radioligand binding competition assay % residual binding @ 300 nM [1] [%] | Radioligand binding competition assay % residual binding @ 300 nM (A1) [2] [%] | Radioligand binding competition assay % residual binding @ 300 nM (A2b) [3] [%] | Radioligand binding competition assay % residual binding @ 300 nM (A3) [4] [%] | IC50 [5] [µM] | IC50 [1] [µM] | A2A radioligand binding competition assay % residual binding @ 3000 nM [1] | inhibition at 0.1 µM [5] [%] | A2A radioligand binding competition assay % residual binding @ 1000 nM ([1]; 1000 nM compound) [%]
O=c1ccc2cc(-c3ccc(O)c(Cl)c3)c(-c3ccccc3)nc2[nH]1 [1.1, 6-(3-chloro-4-hydroxy-phenyl)-7-phenyl-1H-1,8-naphthyridin-2-one] | 83 | 54 | 1.6 | 17 | 95 | 0.061 | – | – | – | –
O=c1cc[nH]c2nc(-c3ccco3)c(-c3ccc4ncccc4c3)cc12 [Compound No. 1.14, 7-(furan-2-yl)-6-(quinolin-6-yl)-1,8-naphthyridin-4(1H)-one] | – | – | 13 | 0 | 87 | – | 0.033 | 5/ND/ND/ND % | 94 | –
O=c1cc[nH]c2nc(-c3ccccc3)c(-c3ccc(O)c(Cl)c3)cc12 [1.2, 6-(3-chloro-4-hydroxy-phenyl)-7-phenyl-1H-1,8-naphthyridin-4-one] | 77 | 60 | 0 | 0 | 83 | 0.022 | – | – | – | –
O=c1cc[nH]c2nc(-c3ccccc3)c(-c3ccc4ncccc4c3)cc12 [1.5, 7-phenyl-6-(quinolin-6-yl)-1,8-naphthyridin-4(1H)-one] | 74 | 38 | 11 | 2 | 104 | 0.023 | 0.181 | 22% | – | 12
O=c1cc[nH]c2nc(-c3ccccc3)c(-c3ccc4ncsc4c3)cc12 [Compound No. 1.24, 6-(benzo[d]thiazol-6-yl)-7-phenyl-1,8-naphthyridin-4(1H)-one] | – | – | – | – | – | – | – | 16/ND/ND/ND % | 83 | –
O=c1cc[nH]c2nc(-c3ccccc3)c(-c3ccc4nccnc4c3)cc12 [Compound No. 1.15, 7-phenyl-6-(quinoxalin-6-yl)-1,8-naphthyridin-4(1H)-one] | – | – | – | – | – | – | – | 45/ND/ND/ND % | 54 | –
O=c1cc[nH]c2nc(-c3ccccc3)c(-c3cc(Cl)c4ncccc4c3)cc12 [Compound No. 1.13, 6-(8-chloroquinolin-6-yl)-7-phenyl-1,8-naphthyridin-4(1H)-one] | – | – | – | – | – | 0.0477 | – | 29/ND/ND/ND % | – | –
